This is an account of results in patent US20150086643A1, “TRADITIONAL CHINESE MEDICINE COMPOUND ANTITUMOR NANO PREPARATION AND USE THEREOF” (priority 2013, published 2015).

This data set deals with H22 hepatoma carcinoma cells. The experiment in a line: In-vivo tumor inhibitory effect in H22 tumor-bearing Kunming mice. The method, then:
The tumor-bearing Kunming mice are used to evaluate the in-vivo tumor inhibitory effect of the compound multiple-unit capsule of the present invention. Inoculating H22 hepatoma carcinoma cells (provided by Shanghai Institute of Materia Medica of Chinese Academy of Sciences) to enterocoelia of mice, taking out the H22 cells cultivated in the enterocoelia of mice after 6-8 days and preparing into homogeneous suspension with PBS; subcutaneously inoculating 0.2 mL of H22 cells (2×10^6/mL) to right axilla of each mouse. After inoculation, the mice are divided into 5 groups, 10 mice for each group: (1) Normal saline group (blank control), (2) 5-FU group (positive control), (3) 0.5% CMC-Na group, (4) Niu Huang Xing Xiao pill group and (5) Compound multiple-unit capsule group. The 5-FU group is subjected to administration through intraperitoneal injection, once every two days, with the dosage being 25 mg/kg. And the other four groups are subjected to intragastric administration. Preparation method of the Niu Huang Xing Xiao pill group and the compound multiple-unit capsule group is as follows: taking prescription amount of each component, adding the components into 0.5% CMC-Na water solution to prepare suspension. The concentration of drug for administration according to the original prescription for the groups (4) and (5) is 450 mg/kg (with the concentration of realgar being about 75 mg/kg). The tumor inhibiting rate is calculated with the following formula:
Tumor inhibiting rate=(C−T)/C×100%; C and T being average weight of the tumors on mice of the blank control and the treatment group.

In the case of `O=c1[nH]cc(F)c(=O)[nH]1` [Example 5-FU, 5-FU], the “Weight of mice (g) After” value (after treatment, n=10) is given as 24.20 ± 1.75 g. Where the note is “before treatment, n=10”, the “Weight of mice (g) Before” value is 20.20 ± 0.92 g. Moreover, under “n=10, 5-FU 25 mg/kg i.p. once every two days, pill and capsule 450 mg/kg intragastric”, the “Weight of tumor” value is given as 0.50 ± 0.13 g. In addition, the “Tumor inhibiting rate (%)” value (n=10, (C−T)/C×100% vs blank control, 5-FU 25 mg/kg i.p., pill and capsule 450 mg/kg intragastric) was 67.95%.
